From patent US10233173B2, “Substituted 1,2,3-triazoles as NR2B-selective NMDA modulators” (JANSSEN PHARMACEUTICA NV, priority 2016, dated 2019) come the findings set out here.

The target in this assay is human GluN1/GluN2B NMDA receptors (Homo sapiens, UniProt Q05586+Q13224). Kind of assay: Cell-based calcium flux (FLIPR) assay on cloned human NR1/NR2B ion channels expressed in mammalian cells. Conditions: standard assay; glutamate at ~EC80; FLIPR calcium flux. Put shortly: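 Calcium influx followed by FLIPR fluorescence after 5 min compound exposure and a further 5 min co-agonist challenge: 10 μM glycine with glutamate at ~EC80 (standard) or EC40 (HTS).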
On the technique in general: Calcium assays in cells follow changes in intracellular calcium, usually with a dye or a luminescent sensor.

Chain of human GluN1/GluN2B NMDA receptors (Q13224 27-1484, other chains not shown): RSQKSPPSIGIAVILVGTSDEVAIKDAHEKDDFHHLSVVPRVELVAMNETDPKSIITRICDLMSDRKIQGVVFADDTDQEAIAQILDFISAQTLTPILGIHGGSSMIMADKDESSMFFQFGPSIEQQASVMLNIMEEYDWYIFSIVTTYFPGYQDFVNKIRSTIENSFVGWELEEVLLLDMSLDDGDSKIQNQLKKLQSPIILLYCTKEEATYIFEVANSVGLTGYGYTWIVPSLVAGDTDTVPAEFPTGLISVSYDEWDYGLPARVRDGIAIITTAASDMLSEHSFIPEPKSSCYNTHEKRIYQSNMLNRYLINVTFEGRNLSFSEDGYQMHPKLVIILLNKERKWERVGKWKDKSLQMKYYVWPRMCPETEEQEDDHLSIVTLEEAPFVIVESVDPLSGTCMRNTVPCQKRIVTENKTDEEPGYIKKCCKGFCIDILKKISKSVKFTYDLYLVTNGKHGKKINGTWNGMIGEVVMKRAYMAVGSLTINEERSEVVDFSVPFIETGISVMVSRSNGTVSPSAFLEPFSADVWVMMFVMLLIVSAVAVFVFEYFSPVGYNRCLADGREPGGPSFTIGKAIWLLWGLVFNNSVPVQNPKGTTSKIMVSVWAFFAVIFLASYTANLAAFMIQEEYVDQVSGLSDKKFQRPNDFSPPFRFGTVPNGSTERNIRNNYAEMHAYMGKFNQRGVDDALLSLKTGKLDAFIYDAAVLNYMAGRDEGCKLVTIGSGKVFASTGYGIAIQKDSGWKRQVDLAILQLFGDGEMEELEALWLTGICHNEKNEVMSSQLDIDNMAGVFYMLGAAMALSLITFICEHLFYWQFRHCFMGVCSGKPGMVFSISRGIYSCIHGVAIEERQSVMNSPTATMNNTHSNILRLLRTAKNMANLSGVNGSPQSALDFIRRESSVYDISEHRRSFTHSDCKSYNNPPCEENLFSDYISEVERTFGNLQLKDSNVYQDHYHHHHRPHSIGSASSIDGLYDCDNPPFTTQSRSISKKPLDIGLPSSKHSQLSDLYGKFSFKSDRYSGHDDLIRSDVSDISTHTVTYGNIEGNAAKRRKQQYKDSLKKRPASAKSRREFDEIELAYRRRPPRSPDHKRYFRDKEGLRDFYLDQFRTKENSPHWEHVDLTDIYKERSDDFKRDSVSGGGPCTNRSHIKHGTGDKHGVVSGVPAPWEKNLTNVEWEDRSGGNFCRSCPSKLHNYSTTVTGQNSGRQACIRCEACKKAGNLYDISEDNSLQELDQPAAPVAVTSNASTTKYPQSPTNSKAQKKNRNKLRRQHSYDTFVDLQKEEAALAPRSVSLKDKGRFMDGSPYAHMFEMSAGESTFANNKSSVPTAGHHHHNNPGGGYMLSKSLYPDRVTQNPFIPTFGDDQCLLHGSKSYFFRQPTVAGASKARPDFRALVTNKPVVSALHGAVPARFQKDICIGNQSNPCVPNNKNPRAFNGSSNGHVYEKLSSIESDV

What is called IC50 is the concentration at which inhibition is half-maximal. In the case of `CNc1nc(OCc2cn(-c3ccc(F)c(C(F)F)c3)nn2)ncc1F` [Example 414, 2-[[1-[3-(Difluoromethyl)-4-fluoro-phenyl]triazol-4-yl]methoxy]-5-fluoro-N-methyl-pyrimidin-4-amine], the IC50 was 0.122 µM.
The value for `CN(C)c1ccnc(OCc2cn(-c3ccc(F)c(C(F)F)c3)nn2)n1` [Example 415, 2-[[1-[3-(Difluoromethyl)-4-fluoro-phenyl]triazol-4-yl]methoxy]-N,N-dimethyl-pyrimidin-4-amine] was 0.008 µM; that for `Fc1ccc(-n2cc(COc3ncc(N4CC(F)C4)cn3)nn2)cc1C(F)F` [Example 416, 2-((1-(3-(Difluoromethyl)-4-fluorophenyl)-1H-1,2,3-triazol-4-yl)methoxy)-5-(3-fluoroazetidin-1-yl)pyrimidine] was 0.01 µM; that for `Fc1ccc(-n2cc(COc3ncc(N4CCC4)cn3)nn2)cc1C(F)F` [Example 417, 5-(Azetidin-1-yl)-2-((1-(3-(difluoromethyl)-4-fluorophenyl)-1H-1,2,3-triazol-4-yl)methoxy)pyrimidine] was 0.006 µM.
Regarding `COC1CN(c2cnc(OCc3cn(-c4ccc(F)c(C(F)F)c4)nn3)nc2)C1` [Example 418, 2-((1-(3-(Difluoromethyl)-4-fluorophenyl)-1H-1,2,3-triazol-4-yl)methoxy)-5-(3-methoxyazetidin-1-yl)pyrimidine], the IC50 worked out at 0.271 µM.
As to `Fc1ccc(-n2cc(COc3ncc(N4CC(F)(F)C4)cn3)nn2)cc1C(F)F` [Example 419, 5-(3,3-Difluoroazetidin-1-yl)-2-((1-(3-(difluoromethyl)-4-fluorophenyl)-1H-1,2,3-triazol-4-yl)methoxy)pyrimidine], the IC50 stood at 0.029 µM.
The value for `CC1(F)CN(c2cnc(OCc3cn(-c4ccc(F)c(C(F)F)c4)nn3)nc2)C1` [Example 420, 2-((1-(3-(Difluoromethyl)-4-fluorophenyl)-1H-1,2,3-triazol-4-yl)methoxy)-5-(3-fluoro-3-methylazetidin-1-yl)pyrimidine] was 0.26 µM.
With `Fc1ccc(-n2cc(COc3ncc(N4CC(C(F)F)C4)cn3)nn2)cc1C(F)F` [Example 421, 2-((1-(3-(Difluoromethyl)-4-fluorophenyl)-1H-1,2,3-triazol-4-yl)methoxy)-5-(3-(difluoromethyl)azetidin-1-yl)pyrimidine], the IC50 was 0.227 µM.
Turning to `Fc1ccc(-n2cc(COc3ncc(N4CCC(F)(F)C4)cn3)nn2)cc1C(F)F` [Example 422, 2-((1-(3-(Difluoromethyl)-4-fluorophenyl)-1H-1,2,3-triazol-4-yl)methoxy)-5-(3,3-difluoropyrrolidin-1-yl)pyrimidine], the IC50 is 0.068 µM.
The value for `Fc1ccc(-n2cc(COc3ncc(C4CC4)cn3)nn2)cc1C(F)F` [Example 423, 5-Cyclopropyl-2-[[1-[3-(difluoromethyl)-4-fluoro-phenyl]triazol-4-yl]methoxy]pyrimidine] was 0.005 µM.
Turning to `Fc1ccc(-n2cc(COc3nccc(-c4ccco4)n3)nn2)cc1C(F)F` [Example 424, 2-[[1-[3-(Difluoromethyl)-4-fluoro-phenyl]triazol-4-yl]methoxy]-4-(2-furyl)pyrimidine], the IC50 is 0.141 µM.
The value for `Cc1cnc(OCc2nnn(-c3ccc(F)c(C(F)F)c3)c2I)nc1` [Example 425, 2-[[1-[3-(Difluoromethyl)-4-fluoro-phenyl]-5-iodo-triazol-4-yl]methoxy]-5-methyl-pyrimidine] was 0.394 µM; that for `Fc1ccc(-n2cc(COc3ncccc3F)nn2)cc1C(F)(F)F` [Example 427, 3-Fluoro-2-[[1-[4-fluoro-3-(trifluoromethyl)phenyl]triazol-4-yl]methoxy]pyridine] was 0.897 µM; that for `Fc1ccc(-n2cc(COc3ccc(Cl)cn3)nn2)cc1C(F)(F)F` [Example 428, 5-Chloro-2-[[1-[4-fluoro-3-(trifluoromethyl)phenyl]triazol-4-yl]methoxy]pyridine] was 0.796 µM.
As to `Cc1ccnc(OCc2cn(-c3ccc(F)c(C(F)(F)F)c3)nn2)c1` [Example 429, 2-[[1-[4-Fluoro-3-(trifluoromethyl)phenyl]triazol-4-yl]methoxy]-4-methyl-pyridine], the IC50 came out at 0.665 µM.
As to `Cc1cccc(OCc2cn(-c3ccc(F)c(C(F)(F)F)c3)nn2)n1` [Example 430, 2-[[1-[4-Fluoro-3-(trifluoromethyl)phenyl]triazol-4-yl]methoxy]-6-methyl-pyridine], the IC50 came to 0.11 µM.
The value for `Cc1ccc(OCc2cn(-c3ccc(F)c(C(F)(F)F)c3)nn2)nc1` [Example 431, 2-[[1-[4-Fluoro-3-(trifluoromethyl)phenyl]triazol-4-yl]methoxy]-5-methyl-pyridine] was 0.101 µM; that for `Fc1ccc(-n2cc(COc3ccc(C(F)(F)F)cn3)nn2)cc1C(F)(F)F` [Example 432, 2-[[1-[4-Fluoro-3-(trifluoromethyl)phenyl]triazol-4-yl]methoxy]-5-(trifluoromethyl)pyridine] was 0.528 µM; that for `CC(C)(O)c1ccc(OCc2cn(-c3ccc(F)c(C(F)(F)F)c3)nn2)nc1` [Example 433, 2-[6-[[1-[4-Fluoro-3-(trifluoromethyl)phenyl]triazol-4-yl]methoxy]-3-pyridyl]propan-2-ol] was 1.11 µM.
`Fc1ccc(-n2cc(COc3cnccn3)nn2)cc1C(F)(F)F` [Example 434, 2-[[1-[4-Fluoro-3-(trifluoromethyl)phenyl]triazol-4-yl]methoxy]pyrazine]: the concentration for half-maximal inhibition (IC50) was determined as 6.39 µM.
The value for `CC(C)(O)c1cnc(OCc2cn(-c3ccc(F)c(C(F)(F)F)c3)nn2)nc1` [Example 435, 2-[2-[[1-[4-Fluoro-3-(trifluoromethyl)phenyl]triazol-4-yl]methoxy]pyrimidin-5-yl]propan-2-ol] was 0.098 µM.
`COC(C)(C)c1cnc(OCc2cn(-c3ccc(F)c(C(F)(F)F)c3)nn2)nc1` [Example 436, 2-[[1-[4-Fluoro-3-(trifluoromethyl)phenyl]triazol-4-yl]methoxy]-5-(1-methoxy-1-methyl-ethyl)pyrimidine]: the IC50 was 3.26 µM.
Consider `COCc1cnc(OCc2cn(-c3ccc(F)c(C(F)(F)F)c3)nn2)nc1` [Example 437, 2-[[1-[4-Fluoro-3-(trifluoromethyl)phenyl]triazol-4-yl]methoxy]-5-(methoxymethyl)pyrimidine], for which the IC50 amounted to 0.071 µM.
Under `COCc1ccnc(OCc2cn(-c3ccc(F)c(C(F)(F)F)c3)nn2)n1` [Example 438, 2-[[1-[4-Fluoro-3-(trifluoromethyl)phenyl]triazol-4-yl]methoxy]-4-(methoxymethyl)pyrimidine] stands 0.094 µM.
The value for `Fc1ccc(-n2cc(COc3ncc(C(F)F)cn3)nn2)cc1C(F)(F)F` [Example 439, 5-(Difluoromethyl)-2-[[1-[4-fluoro-3-(trifluoromethyl)phenyl]triazol-4-yl]methoxy]pyrimidine] was 0.013 µM; that for `Fc1ccc(-n2cc(COc3nccc(C(F)F)n3)nn2)cc1C(F)(F)F` [Example 440, 4-(Difluoromethyl)-2-[[1-[4-fluoro-3-(trifluoromethyl)phenyl]triazol-4-yl]methoxy]pyrimidine] was 0.098 µM.
In the case of `COc1ccnc(OCc2cn(-c3ccc(F)c(C(F)(F)F)c3)nn2)n1` [Example 442, 2-[[1-[4-Fluoro-3-(trifluoromethyl)phenyl]triazol-4-yl]methoxy]-4-methoxy-pyrimidine], the IC50 was 0.072 µM.
